In paper PMC4076210, “Discovery of Novel AKT Inhibitors with Enhanced Anti-Tumor Effects in Combination with the MEK Inhibitor” (PLoS ONE, 2014):
Where two headings read alike, the source gives them in different places.

Experiments:
Assay in all cases: Kinase panel
Type in all cases: biochemical
BRK(h) = target: T1, BRK(h) (Homo sapiens, UniProt Q13882)
T1 construct: purchased Millipore KinaseProfiler

BTK(h) = target: T2, BTK(h) (Homo sapiens, UniProt Q06187)
T2 construct: purchased Millipore KinaseProfiler

CaMKIIγ(h) = target: T3, CaMKIIγ(h) (Homo sapiens, UniProt Q13555)
T3 construct: purchased Millipore KinaseProfiler

CK2α2(h) = target: T4, CK2α2(h) (Homo sapiens, UniProt P19784)
T4 construct: purchased Millipore KinaseProfiler

DRAK1(h) = target: T5, DRAK1(h) (Homo sapiens, UniProt Q9UEE5)
T5 construct: purchased Millipore KinaseProfiler
T5 sequence (Q9UEE5 1-414): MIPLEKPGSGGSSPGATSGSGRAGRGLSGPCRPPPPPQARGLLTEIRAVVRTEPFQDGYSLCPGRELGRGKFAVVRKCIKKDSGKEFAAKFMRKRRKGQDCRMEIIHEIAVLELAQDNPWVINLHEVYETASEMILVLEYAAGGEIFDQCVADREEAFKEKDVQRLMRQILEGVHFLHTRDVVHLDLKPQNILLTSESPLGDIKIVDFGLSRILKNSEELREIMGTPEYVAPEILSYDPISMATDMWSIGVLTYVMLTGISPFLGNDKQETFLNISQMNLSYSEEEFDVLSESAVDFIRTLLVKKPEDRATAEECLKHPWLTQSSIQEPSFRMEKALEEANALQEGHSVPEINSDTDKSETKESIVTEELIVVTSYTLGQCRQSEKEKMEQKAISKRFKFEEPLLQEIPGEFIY

EGFR(T790M,L858R)(h) = target: T6, EGFR(T790M,L858R)(h) (Homo sapiens, UniProt P00533, L858R/T790M)
T6 construct: purchased Millipore KinaseProfiler

FGFR1(V561M)(h) = target: T7, FGFR1(V561M)(h) (Homo sapiens, UniProt P11362, V561M)
T7 construct: purchased Millipore KinaseProfiler

Lck(h) = target: T8, Lck(h) (Homo sapiens, UniProt P06239)
T8 construct: purchased Millipore KinaseProfiler

Lyn(h) = target: T9, Lyn(h) (Homo sapiens, UniProt P07948)
T9 construct: purchased Millipore KinaseProfiler

p70S6K(h) = target: T10, p70S6K(h) (Homo sapiens, UniProt P23443)
T10 construct: purchased Millipore KinaseProfiler

PASK(h) = target: T11, PASK(h) (Homo sapiens, UniProt Q96RG2)
T11 construct: purchased Millipore KinaseProfiler

PKCα(h) = target: T12, PKCα(h) (Homo sapiens, UniProt P17252)
T12 construct: purchased Millipore KinaseProfiler

PKCβII(h) = target: T13, PKCβII(h) (Homo sapiens, UniProt P05771)
T13 construct: purchased Millipore KinaseProfiler

PKG1α(h) = target: T14, PKG1α(h) (Homo sapiens, UniProt Q13976)
T14 construct: purchased Millipore KinaseProfiler
T14 sequence (Q13976 1-671): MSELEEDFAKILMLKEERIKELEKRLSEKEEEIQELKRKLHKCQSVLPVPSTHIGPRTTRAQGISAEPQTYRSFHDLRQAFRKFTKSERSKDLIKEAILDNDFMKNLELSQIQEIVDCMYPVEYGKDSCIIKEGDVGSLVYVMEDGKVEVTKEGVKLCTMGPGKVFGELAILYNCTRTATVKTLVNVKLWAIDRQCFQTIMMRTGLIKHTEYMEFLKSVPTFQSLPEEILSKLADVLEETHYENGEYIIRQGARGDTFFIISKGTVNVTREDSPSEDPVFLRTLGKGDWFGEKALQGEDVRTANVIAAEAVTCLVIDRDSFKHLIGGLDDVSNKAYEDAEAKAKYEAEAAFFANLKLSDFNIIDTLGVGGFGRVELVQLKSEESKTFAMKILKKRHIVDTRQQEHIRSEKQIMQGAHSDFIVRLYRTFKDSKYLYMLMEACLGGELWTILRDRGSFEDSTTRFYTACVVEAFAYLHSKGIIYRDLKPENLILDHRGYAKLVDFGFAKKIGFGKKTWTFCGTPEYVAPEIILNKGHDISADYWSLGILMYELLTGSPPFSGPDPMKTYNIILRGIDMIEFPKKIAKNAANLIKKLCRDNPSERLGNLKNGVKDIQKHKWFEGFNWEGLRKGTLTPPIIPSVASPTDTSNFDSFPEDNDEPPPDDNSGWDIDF

PTK5(h) = target: T15, PTK5(h) (Homo sapiens, UniProt P42685)
T15 construct: purchased Millipore KinaseProfiler

Rsk1(r) = target: T16, Rsk1(r) (Rattus norvegicus, UniProt Q63531)
T16 construct: purchased Millipore KinaseProfiler
T16 sequence (Q63531 whole entry): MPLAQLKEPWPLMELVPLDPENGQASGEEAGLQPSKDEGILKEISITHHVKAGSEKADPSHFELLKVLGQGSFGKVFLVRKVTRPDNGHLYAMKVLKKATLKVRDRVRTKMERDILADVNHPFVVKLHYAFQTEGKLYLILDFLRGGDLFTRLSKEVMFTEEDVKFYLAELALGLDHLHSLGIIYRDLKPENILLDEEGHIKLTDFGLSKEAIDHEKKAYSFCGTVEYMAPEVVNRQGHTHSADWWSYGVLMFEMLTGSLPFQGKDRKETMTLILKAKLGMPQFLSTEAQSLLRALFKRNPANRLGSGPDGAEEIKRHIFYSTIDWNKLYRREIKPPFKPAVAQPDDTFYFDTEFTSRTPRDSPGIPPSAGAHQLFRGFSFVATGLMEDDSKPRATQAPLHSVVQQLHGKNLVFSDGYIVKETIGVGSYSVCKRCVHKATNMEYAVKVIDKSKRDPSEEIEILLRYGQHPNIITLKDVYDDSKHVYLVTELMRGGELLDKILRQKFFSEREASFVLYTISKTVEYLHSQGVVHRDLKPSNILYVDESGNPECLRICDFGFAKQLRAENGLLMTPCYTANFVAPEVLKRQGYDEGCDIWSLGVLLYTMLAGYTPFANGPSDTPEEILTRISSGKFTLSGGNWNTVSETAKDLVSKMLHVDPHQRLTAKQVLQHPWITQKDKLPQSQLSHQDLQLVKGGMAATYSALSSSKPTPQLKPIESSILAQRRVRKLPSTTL

T15 sequence (P42685 whole entry): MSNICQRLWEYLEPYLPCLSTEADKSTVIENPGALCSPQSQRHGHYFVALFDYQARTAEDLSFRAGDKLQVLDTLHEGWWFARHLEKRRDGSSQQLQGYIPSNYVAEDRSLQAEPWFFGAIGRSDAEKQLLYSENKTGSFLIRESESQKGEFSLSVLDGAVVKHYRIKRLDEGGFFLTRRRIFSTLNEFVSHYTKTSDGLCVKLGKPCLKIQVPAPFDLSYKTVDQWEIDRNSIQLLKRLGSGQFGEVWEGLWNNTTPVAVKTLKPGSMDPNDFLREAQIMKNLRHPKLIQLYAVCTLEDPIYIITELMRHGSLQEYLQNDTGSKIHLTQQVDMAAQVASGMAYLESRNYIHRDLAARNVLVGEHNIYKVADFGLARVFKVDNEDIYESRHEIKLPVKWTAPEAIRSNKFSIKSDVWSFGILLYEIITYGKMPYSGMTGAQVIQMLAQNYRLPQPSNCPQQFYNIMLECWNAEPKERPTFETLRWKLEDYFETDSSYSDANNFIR
T3 sequence (Q13555 whole entry): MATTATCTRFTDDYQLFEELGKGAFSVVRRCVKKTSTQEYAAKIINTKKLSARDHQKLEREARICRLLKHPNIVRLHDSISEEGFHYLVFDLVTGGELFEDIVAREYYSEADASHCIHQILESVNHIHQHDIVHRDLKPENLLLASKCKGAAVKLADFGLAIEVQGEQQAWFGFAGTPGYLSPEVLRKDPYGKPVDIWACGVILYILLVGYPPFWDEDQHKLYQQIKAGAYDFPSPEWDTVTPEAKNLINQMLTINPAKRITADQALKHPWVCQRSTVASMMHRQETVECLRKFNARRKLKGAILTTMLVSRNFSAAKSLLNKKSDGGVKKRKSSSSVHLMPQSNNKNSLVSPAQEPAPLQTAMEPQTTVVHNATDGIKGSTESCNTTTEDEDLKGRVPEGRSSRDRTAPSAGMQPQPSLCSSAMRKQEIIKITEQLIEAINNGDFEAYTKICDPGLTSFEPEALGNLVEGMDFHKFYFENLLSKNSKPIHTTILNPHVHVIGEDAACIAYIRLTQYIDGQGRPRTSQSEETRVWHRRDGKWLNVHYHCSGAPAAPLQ
T8 sequence (P06239 whole entry): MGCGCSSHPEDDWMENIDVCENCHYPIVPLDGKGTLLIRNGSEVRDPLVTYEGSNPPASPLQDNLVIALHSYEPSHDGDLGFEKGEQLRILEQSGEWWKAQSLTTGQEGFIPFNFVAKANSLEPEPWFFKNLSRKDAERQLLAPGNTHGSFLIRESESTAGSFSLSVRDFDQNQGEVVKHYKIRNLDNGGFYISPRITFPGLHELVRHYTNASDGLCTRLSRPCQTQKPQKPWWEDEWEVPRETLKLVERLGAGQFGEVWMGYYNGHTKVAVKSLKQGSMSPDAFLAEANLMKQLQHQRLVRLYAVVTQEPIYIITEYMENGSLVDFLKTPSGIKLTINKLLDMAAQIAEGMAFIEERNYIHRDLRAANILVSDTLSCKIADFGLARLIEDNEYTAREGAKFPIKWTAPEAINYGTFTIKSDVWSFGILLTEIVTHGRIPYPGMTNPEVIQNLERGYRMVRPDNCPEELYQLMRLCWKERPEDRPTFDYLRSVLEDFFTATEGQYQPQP
T10 sequence (P23443 whole entry): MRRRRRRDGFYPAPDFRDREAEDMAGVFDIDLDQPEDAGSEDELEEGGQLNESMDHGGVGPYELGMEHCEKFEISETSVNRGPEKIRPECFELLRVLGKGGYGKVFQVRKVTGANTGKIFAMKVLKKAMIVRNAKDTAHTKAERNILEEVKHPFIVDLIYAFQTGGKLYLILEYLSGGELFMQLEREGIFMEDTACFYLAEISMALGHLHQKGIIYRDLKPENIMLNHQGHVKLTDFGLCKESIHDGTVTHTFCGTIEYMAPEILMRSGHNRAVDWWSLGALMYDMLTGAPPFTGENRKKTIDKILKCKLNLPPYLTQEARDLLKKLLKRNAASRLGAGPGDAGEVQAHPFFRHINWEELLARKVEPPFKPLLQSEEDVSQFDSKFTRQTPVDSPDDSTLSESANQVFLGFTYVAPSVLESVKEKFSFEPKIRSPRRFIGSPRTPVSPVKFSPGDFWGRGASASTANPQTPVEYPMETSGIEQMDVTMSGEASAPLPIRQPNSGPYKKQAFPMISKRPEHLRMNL
T11 sequence (Q96RG2 whole entry): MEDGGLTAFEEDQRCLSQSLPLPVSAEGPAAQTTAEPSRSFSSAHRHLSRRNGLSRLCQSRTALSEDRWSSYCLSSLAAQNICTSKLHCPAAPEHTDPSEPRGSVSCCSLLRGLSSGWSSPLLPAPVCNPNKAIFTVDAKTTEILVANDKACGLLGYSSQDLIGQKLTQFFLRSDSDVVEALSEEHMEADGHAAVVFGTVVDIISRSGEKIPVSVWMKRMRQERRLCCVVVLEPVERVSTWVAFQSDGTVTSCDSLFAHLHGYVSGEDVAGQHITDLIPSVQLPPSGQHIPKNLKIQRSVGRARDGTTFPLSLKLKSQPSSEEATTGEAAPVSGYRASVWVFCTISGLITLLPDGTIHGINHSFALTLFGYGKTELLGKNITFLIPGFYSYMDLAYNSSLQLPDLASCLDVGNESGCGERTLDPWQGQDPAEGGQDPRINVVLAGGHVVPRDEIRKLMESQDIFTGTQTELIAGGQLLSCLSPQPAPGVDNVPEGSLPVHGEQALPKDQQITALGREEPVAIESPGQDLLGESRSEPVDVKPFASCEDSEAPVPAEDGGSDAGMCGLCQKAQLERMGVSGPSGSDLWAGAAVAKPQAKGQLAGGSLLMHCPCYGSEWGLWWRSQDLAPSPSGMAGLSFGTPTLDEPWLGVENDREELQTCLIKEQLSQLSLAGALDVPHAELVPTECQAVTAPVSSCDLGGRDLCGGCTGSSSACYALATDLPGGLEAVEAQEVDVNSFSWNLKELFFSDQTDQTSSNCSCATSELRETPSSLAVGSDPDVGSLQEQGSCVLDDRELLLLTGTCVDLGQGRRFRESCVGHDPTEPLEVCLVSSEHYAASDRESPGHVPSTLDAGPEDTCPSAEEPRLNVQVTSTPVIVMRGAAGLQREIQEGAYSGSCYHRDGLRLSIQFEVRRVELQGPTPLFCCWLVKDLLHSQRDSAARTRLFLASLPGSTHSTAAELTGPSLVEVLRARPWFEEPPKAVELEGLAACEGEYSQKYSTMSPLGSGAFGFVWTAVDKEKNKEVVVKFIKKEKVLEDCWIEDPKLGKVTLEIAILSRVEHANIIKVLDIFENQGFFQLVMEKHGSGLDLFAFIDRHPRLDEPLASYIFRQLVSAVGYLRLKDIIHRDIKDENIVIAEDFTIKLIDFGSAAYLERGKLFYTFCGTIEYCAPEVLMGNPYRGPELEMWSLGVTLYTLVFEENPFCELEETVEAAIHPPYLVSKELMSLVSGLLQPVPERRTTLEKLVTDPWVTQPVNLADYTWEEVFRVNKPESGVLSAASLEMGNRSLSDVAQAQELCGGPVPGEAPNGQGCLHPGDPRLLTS
T2 sequence (Q06187 whole entry): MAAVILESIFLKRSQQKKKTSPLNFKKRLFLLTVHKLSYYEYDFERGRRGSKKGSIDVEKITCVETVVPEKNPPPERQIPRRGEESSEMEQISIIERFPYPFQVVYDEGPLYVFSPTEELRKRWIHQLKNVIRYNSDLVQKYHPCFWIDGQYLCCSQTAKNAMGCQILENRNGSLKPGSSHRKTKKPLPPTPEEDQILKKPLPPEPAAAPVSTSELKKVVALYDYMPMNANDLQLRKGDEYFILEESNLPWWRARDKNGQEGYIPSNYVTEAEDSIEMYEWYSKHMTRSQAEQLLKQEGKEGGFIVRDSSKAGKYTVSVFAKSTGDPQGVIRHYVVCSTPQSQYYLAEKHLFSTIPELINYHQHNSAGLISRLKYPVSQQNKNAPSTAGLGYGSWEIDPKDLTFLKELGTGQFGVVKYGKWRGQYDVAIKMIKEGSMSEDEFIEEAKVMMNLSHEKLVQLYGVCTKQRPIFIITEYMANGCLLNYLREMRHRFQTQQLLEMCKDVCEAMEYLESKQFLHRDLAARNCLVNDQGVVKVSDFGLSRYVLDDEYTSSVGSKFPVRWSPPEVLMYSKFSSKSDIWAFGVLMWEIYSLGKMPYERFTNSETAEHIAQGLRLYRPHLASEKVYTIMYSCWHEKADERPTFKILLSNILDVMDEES

Which results are given for Cn1ncc(Cl)c1-c1cc(C(=O)N[C@H](CN)Cc2cccc(F)c2)sc1Cl [GSK2110183]?
inhibition at 0.5 µM (BRK(h)): 0%; inhibition at 10 µM (BRK(h)): -2%; inhibition at 0.5 µM (BTK(h)): 2%; inhibition at 10 µM (BTK(h)): 4%; inhibition at 0.5 µM (CaMKIIγ(h)): 39%; inhibition at 10 µM (CaMKIIγ(h)): 89%; inhibition at 0.5 µM (CK2α2(h)): 2%; inhibition at 10 µM (CK2α2(h)): 4%; inhibition at 0.5 µM (DRAK1(h)): 10%; inhibition at 10 µM (DRAK1(h)): 40%; inhibition at 0.5 µM (EGFR(T790M,L858R)(h)): -32%; inhibition at 10 µM (EGFR(T790M,L858R)(h)): -3%; inhibition at 0.5 µM (FGFR1(V561M)(h)): -4%; inhibition at 10 µM (FGFR1(V561M)(h)): 16%; inhibition at 0.5 µM (Lck(h)): 7%; inhibition at 10 µM (Lck(h)): 35%; inhibition at 0.5 µM (Lyn(h)): -12%; inhibition at 10 µM (Lyn(h)): 7%; inhibition at 0.5 µM (p70S6K(h)): 78%; inhibition at 10 µM (p70S6K(h)): 97%; inhibition at 0.5 µM (PASK(h)): 4%; inhibition at 10 µM (PASK(h)): 45%; inhibition at 0.5 µM (PKCα(h)): 2%; inhibition at 10 µM (PKCα(h)): 40%; inhibition at 0.5 µM (PKCβII(h)): 2%; inhibition at 10 µM (PKCβII(h)): 75%; inhibition at 0.5 µM (PKG1α(h)): 99%; inhibition at 10 µM (PKG1α(h)): 99%; inhibition at 0.5 µM (PTK5(h)): 4%; inhibition at 10 µM (PTK5(h)): 18%; inhibition at 0.5 µM (Rsk1(r)): 24%; inhibition at 10 µM (Rsk1(r)): 89%

For Cn1ncc(Cl)c1-c1cc(C(=O)N[C@H](CN)Cc2ccc(F)c(F)c2)oc1Cl [GSK2141795], which inhibition at 0.5 µM (BRK(h); 0.5 µM, read-out: % Inhibition) is on record?
The inhibition at 0.5 µM was -15%.

What about the inhibition at 10 µM (BRK(h); 10 µM, read-out: % Inhibition) of the same compound?
Its inhibition at 10 µM is 25%.

And the inhibition at 0.5 µM (BTK(h); 0.5 µM, read-out: % Inhibition)?
Its inhibition at 0.5 µM is 7%.

What about the inhibition at 10 µM (BTK(h); 10 µM, read-out: % Inhibition) of the same compound?
The inhibition at 10 µM was 6%.

What about the inhibition at 0.5 µM (CaMKIIγ(h); 0.5 µM, read-out: % Inhibition) of the same compound?
Its inhibition at 0.5 µM is 48%.

And the inhibition at 10 µM (CaMKIIγ(h); 10 µM, read-out: % Inhibition)?
Its inhibition at 10 µM is 92%.

And the inhibition at 0.5 µM (CK2α2(h); 0.5 µM, read-out: % Inhibition)?
The inhibition at 0.5 µM was 1%.

What about the inhibition at 10 µM (CK2α2(h); 10 µM, read-out: % Inhibition) of the same compound?
Its inhibition at 10 µM is -5%.

What about the inhibition at 0.5 µM (DRAK1(h); 0.5 µM, read-out: % Inhibition) of the same compound?
Its inhibition at 0.5 µM is -18%.

What about the inhibition at 10 µM (DRAK1(h); 10 µM, read-out: % Inhibition) of the same compound?
Its inhibition at 10 µM is 24%.

What about the inhibition at 0.5 µM (EGFR(T790M,L858R)(h); 0.5 µM, read-out: % Inhibition) of the same compound?
The inhibition at 0.5 µM was -7%.

What about the inhibition at 10 µM (EGFR(T790M,L858R)(h); 10 µM, read-out: % Inhibition) of the same compound?
The inhibition at 10 µM was 18%.

What about the inhibition at 0.5 µM (FGFR1(V561M)(h); 0.5 µM, read-out: % Inhibition) of the same compound?
Its inhibition at 0.5 µM is 15%.

What about the inhibition at 10 µM (FGFR1(V561M)(h); 10 µM, read-out: % Inhibition) of the same compound?
Its inhibition at 10 µM is 36%.

What about the inhibition at 0.5 µM (Lck(h); 0.5 µM, read-out: % Inhibition) of the same compound?
The inhibition at 0.5 µM was -18%.

What about the inhibition at 10 µM (Lck(h); 10 µM, read-out: % Inhibition) of the same compound?
The inhibition at 10 µM was 21%.

What about the inhibition at 0.5 µM (Lyn(h); 0.5 µM, read-out: % Inhibition) of the same compound?
Its inhibition at 0.5 µM is -10%.

And the inhibition at 10 µM (Lyn(h); 10 µM, read-out: % Inhibition)?
Its inhibition at 10 µM is 41%.

What about the inhibition at 0.5 µM (p70S6K(h); 0.5 µM, read-out: % Inhibition) of the same compound?
The inhibition at 0.5 µM was 88%.

What about the inhibition at 10 µM (p70S6K(h); 10 µM, read-out: % Inhibition) of the same compound?
The inhibition at 10 µM was 98%.

What about the inhibition at 0.5 µM (PASK(h); 0.5 µM, read-out: % Inhibition) of the same compound?
The inhibition at 0.5 µM was 11%.

And the inhibition at 10 µM (PASK(h); 10 µM, read-out: % Inhibition)?
The inhibition at 10 µM was 49%.

What about the inhibition at 0.5 µM (PKCα(h); 0.5 µM, read-out: % Inhibition) of the same compound?
Its inhibition at 0.5 µM is 10%.

And the inhibition at 10 µM (PKCα(h); 10 µM, read-out: % Inhibition)?
Its inhibition at 10 µM is 62%.

What about the inhibition at 0.5 µM (PKCβII(h); 0.5 µM, read-out: % Inhibition) of the same compound?
The inhibition at 0.5 µM was 44%.

What about the inhibition at 10 µM (PKCβII(h); 10 µM, read-out: % Inhibition) of the same compound?
The inhibition at 10 µM was 91%.

What about the inhibition at 0.5 µM (PKG1α(h); 0.5 µM, read-out: % Inhibition) of the same compound?
Its inhibition at 0.5 µM is 100%.

And the inhibition at 10 µM (PKG1α(h); 10 µM, read-out: % Inhibition)?
The inhibition at 10 µM was 99%.

What about the inhibition at 0.5 µM (PTK5(h); 0.5 µM, read-out: % Inhibition) of the same compound?
The inhibition at 0.5 µM was 11%.

What about the inhibition at 10 µM (PTK5(h); 10 µM, read-out: % Inhibition) of the same compound?
Its inhibition at 10 µM is 70%.

And the inhibition at 0.5 µM (Rsk1(r); 0.5 µM, read-out: % Inhibition)?
The inhibition at 0.5 µM was 57%.

What about the inhibition at 10 µM (Rsk1(r); 10 µM, read-out: % Inhibition) of the same compound?
The inhibition at 10 µM was 95%.
